Here are results for two molecules from the NIST ThermoML archive (doi:10.1021/je100583z).

The conditions of this data set: Liquid, Closed cell (Static) method.

Structures are written as SMILES. ± gives the expanded uncertainty stated by the source.

As to `FC(C(F)(F)F)C(F)(F)F` [1,1,1,2,3,3,3-heptafluoropropane], the “vapor or sublimation pressure” value is given as 234 ± 1 kPa (278.15 K); 327 ± 1 kPa (288.15 K); 451 ± 1 kPa (298.15 K); 611 ± 1 kPa (308.15 K); 805 ± 2 kPa (318.15 K); 1040 ± 2 kPa (328.15 K).
For the molecule `O=C=O` [carbon dioxide], the “vapor or sublimation pressure” value (278.15 K) worked out at 3960 ± 8 kPa, the “vapor or sublimation pressure” value (288.15 K) stood at 5080 ± 10 kPa and the “vapor or sublimation pressure” value (298.15 K) was determined as 6425 ± 13 kPa.

In general, vapor or sublimation pressure refers to the pressure of vapour in equilibrium with the condensed phase.
